Data set [1] deals with 5-HT transporter - SERT (UniProt P31645). The experiment in a line: Binding to the serotoninergic receptors. As to conditions: purified membranes. Here is the method:
(§1) Confirmation of the binding to the serotoninergic receptors was performed by means of the biochemical test on purified membranes from recombinant human cells that stably express the specific receptors or from animal tissues selected as described in particular for each type of serotoninergic receptor, in: Martin G. R. and Humphrey P. P. A. Neuropharmacol. 1994, 33:261; Hoyer D. Eur. J. Pharmacol. 1985, 118:1; Bonhaus DW et al. Br. J. Pharmacol. 1995, 115:622; Wolf WA et al. J. Neurochem. 1997, 69:1449; Boess F G et al. Neuropharmacol. 1997, 36:637; Mialet J et al. Br. J. Pharmacol. 2000; 129:771; Rees S et al. FEBS Lett. 1994, 355:242; Monsma F. J. et al. Mol. Pharmacol. 1993, 43:320; Roth BL et al. J. Pharmacol. Exp. Ther. 1994, 268: 1403; and Shearman L P et al. Am. J. Physiol. 1998, 275: C1621.
(§2) Confirmation of the binding to the serotoninergic receptors was made using purified membranes from selected animal tissues or from recombinant human cells that stably express the specific receptors, as described in: Martin G. R. and Humphrey P. P. A. Neuropharmacol. 1994, 33:261; Hoyer D. Eur. J. Pharmacol. 1985, 118:1; Bonhaus DW et al. Br. J. Pharmacol. 1995, 115:622; Wolf WA et al. J. Neurochem. 1997, 69:1449; Boess FG et al. Neuropharmacol. 1997, 36:637; Mialet J et al. Br. J. Pharmacol. 2000, 129:771; Rees S et al. FEBS Lett. 1994, 355:242; Monsma F. J. et al. Mol. Pharmacol. 1993, 43:320; Roth BL et al. J. Pharmacol. Exp. Ther. 1994, 268: 1403; and Shearman LP et al. Am. J. Physiol. 1998, 275: C1621.

Data set [2] has as its target T1, 5-HT1A (Homo sapiens, UniProt P08908).
T1 sequence (P08908 1-422): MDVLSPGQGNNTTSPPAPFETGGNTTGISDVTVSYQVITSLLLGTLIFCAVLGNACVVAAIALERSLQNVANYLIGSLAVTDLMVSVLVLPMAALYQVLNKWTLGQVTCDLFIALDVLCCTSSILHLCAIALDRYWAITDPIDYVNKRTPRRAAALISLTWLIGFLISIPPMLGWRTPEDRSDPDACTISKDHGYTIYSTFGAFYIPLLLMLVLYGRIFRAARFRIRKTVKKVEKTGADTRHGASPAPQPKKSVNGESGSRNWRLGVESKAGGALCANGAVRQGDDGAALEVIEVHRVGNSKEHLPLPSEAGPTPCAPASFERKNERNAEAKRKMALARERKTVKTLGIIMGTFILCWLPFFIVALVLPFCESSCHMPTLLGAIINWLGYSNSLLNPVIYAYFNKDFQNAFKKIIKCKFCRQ
The experiment in a line: Binding to the serotoninergic receptors. As to conditions: purified membranes. As for the experimental part: as §1, §2

For data set [3], the target named is T2, 5-HT1B (Rattus norvegicus, UniProt P28564).
T2 construct: purified membranes from selected animal tissues; from tissue; host or cells: animal tissue membranes; rat brain inferred from Hoyer 1985
T2 sequence (P28564 whole entry): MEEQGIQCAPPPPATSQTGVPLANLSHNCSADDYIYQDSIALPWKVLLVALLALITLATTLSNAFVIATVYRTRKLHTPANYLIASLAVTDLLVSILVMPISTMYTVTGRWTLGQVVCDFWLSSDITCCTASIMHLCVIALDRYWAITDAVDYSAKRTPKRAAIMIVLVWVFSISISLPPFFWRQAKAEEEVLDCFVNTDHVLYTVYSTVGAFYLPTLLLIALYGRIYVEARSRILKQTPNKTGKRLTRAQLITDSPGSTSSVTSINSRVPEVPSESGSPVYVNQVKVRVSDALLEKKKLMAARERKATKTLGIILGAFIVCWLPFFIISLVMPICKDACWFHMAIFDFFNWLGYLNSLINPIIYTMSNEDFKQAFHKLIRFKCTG
The experiment in a line: Binding to the serotoninergic receptors. As to conditions: purified membranes. Here is the method: as §1, §2

Data set [4] has as its target T3, 5-HT2A (Homo sapiens, UniProt P28223).
T3 construct: expressed in transfected cells
The experiment in a line: Binding to the serotoninergic receptors. The following applies: purified membranes. Here is the method: as §1, §2

Data set [5] concerns the target T4, 5-HT2B (Homo sapiens, UniProt P41595).
T4 construct: expressed in transfected cells
The experiment in a line: Binding to the serotoninergic receptors. The following applies: purified membranes. Here is the method: as §1, §2

Data set [6] has as its target T5, 5-HT2C (UniProt P28335).
T5 sequence (P28335 1-458): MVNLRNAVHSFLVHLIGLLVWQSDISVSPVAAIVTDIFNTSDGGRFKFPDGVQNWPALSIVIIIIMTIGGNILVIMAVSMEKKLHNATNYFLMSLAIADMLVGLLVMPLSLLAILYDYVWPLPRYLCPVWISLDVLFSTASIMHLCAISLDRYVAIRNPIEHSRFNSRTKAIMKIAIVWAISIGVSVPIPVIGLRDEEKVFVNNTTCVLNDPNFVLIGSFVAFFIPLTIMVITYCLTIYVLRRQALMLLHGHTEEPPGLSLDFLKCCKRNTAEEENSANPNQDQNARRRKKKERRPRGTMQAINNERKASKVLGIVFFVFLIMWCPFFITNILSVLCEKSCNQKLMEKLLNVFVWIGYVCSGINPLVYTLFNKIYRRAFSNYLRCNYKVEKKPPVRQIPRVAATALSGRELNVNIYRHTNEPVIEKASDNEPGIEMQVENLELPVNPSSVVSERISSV
The experiment in a line: Binding to the serotoninergic receptors. As to conditions: purified membranes. Here is the method: as §1, §2

Data set [7] concerns the target T6, 5-HT3 (UniProt P46098).
T6 sequence (P46098 1-478): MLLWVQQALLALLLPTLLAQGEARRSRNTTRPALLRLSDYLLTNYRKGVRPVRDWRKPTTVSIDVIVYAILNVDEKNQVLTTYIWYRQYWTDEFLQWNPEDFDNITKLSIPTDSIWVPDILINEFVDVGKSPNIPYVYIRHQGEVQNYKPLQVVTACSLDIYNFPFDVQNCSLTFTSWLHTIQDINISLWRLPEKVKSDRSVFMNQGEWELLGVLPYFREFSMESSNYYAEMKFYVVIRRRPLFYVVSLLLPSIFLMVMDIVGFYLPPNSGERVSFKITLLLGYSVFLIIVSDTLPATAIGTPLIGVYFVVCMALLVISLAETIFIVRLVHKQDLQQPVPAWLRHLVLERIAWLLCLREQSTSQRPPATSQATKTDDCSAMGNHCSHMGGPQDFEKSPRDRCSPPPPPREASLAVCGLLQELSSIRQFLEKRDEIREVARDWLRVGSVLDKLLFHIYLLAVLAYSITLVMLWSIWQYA
The experiment in a line: Binding to the serotoninergic receptors. The following applies: purified membranes. Here is the method: as §1, §2

For data set [8], the target named is T7, 5-HT4 receptor (Homo sapiens, UniProt Q13639).
T7 construct: expressed in transfected cells
T7 sequence (Q13639 1-378 isoform Q13639-5): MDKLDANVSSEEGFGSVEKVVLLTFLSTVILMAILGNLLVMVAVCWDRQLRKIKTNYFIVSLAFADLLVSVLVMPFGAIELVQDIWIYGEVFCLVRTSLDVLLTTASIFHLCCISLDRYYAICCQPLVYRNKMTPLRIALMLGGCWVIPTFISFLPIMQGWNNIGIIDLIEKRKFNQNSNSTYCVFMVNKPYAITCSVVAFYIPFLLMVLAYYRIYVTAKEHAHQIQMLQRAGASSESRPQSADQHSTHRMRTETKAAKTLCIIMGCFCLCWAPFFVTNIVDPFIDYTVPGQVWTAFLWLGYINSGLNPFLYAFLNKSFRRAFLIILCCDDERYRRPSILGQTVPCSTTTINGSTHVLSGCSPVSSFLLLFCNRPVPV
The experiment in a line: Binding to the serotoninergic receptors. Here is the method:
as §1, §2

Data set [9] addresses T8, 5-HT5A (Homo sapiens, UniProt P47898).
T8 construct: expressed in transfected cells
The experiment in a line: Binding to the serotoninergic receptors. The following applies: purified membranes. Here is the method: as §1, §2

The target of data set [10] is 5-HT6 (UniProt P50406). The experiment in a line: Binding to the serotoninergic receptors. As to conditions: purified membranes. Here is the method: as §1, §2
Data set [11] has as its target 5-HT7 (UniProt P34969). The experiment in a line: Binding to the serotoninergic receptors. As to conditions: purified membranes. As for the experimental part:
as §1, §2

For data set [12], the target named is T9, hERG ion channel (Homo sapiens, UniProt Q12809).
T9 construct: expressed in transfected cells; host or cells: HEK-293
T9 sequence (Q12809 whole entry): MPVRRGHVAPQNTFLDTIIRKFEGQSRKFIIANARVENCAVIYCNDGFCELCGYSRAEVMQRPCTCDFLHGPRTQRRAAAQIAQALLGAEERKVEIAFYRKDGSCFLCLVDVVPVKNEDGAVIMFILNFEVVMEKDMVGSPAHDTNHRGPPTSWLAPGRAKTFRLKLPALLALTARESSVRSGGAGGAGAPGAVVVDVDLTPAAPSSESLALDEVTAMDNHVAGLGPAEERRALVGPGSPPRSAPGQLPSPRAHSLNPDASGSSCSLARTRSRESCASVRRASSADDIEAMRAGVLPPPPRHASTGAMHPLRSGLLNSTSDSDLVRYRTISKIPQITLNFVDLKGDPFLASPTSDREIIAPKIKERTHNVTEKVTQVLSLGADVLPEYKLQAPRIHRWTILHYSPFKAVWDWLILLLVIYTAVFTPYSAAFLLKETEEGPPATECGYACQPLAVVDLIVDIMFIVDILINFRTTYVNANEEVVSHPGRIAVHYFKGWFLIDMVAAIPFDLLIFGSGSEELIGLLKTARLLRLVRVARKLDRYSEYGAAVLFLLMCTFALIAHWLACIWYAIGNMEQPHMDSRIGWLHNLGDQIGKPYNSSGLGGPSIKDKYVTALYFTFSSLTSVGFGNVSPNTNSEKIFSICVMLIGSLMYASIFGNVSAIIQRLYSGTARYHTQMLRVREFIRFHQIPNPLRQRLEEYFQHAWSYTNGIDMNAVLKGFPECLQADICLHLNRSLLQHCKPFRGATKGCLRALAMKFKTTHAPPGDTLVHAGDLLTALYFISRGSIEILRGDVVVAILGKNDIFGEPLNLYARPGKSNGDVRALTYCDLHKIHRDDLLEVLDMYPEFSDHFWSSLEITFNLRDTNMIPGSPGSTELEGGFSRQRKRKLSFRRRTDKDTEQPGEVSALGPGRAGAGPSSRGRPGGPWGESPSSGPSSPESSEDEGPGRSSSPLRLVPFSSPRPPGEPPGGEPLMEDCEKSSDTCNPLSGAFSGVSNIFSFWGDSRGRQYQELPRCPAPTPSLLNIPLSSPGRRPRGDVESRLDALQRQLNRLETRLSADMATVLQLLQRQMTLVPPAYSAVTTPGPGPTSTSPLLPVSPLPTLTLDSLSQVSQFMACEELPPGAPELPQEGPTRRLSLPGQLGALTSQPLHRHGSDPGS
The experiment in a line: cell-based. An excerpt: Confirmation of interaction with the potassium channels was made by means of a functional cell test (patch clamp) that uses HEK-293 recombinant human cells that stably express the hERG ion channel, as described in Zhou Z. et al. Biophys. J. 1998; 74:230.
Confirmation of interaction with the potassium channels was made by means of the patch clamp test described in Zhou Z. et al. Biophys. J. 1998; 74:230 using the recombinant human cell line HEK-293, which stably expresses the hERG ion channel.

Each structure is given as a SMILES string. Bounds are passed on as bounds.

T3 sequence (P28223 whole entry): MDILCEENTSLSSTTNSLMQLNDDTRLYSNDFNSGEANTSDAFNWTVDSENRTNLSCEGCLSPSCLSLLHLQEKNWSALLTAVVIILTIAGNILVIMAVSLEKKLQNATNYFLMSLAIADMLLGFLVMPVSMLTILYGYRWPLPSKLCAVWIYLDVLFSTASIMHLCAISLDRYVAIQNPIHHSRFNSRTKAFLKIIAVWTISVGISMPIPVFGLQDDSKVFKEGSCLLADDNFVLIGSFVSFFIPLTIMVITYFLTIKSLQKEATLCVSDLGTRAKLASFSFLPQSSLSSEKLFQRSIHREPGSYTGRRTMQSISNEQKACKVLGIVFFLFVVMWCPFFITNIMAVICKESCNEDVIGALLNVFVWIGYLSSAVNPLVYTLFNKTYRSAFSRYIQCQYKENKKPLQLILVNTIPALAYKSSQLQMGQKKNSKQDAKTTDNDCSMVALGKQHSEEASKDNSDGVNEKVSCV
Chain of 5-HT7 (P34969 1-432 limits assumed): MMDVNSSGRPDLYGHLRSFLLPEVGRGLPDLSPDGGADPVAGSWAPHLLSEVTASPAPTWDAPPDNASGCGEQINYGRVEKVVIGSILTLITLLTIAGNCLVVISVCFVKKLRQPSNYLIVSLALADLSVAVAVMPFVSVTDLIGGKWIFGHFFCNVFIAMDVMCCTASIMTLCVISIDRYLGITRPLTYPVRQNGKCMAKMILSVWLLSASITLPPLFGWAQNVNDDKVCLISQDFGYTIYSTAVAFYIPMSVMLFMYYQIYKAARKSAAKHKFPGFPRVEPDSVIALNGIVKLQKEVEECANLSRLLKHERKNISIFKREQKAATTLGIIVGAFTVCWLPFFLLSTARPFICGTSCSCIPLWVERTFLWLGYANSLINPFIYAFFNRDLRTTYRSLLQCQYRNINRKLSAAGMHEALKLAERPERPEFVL
T4 sequence (P41595 whole entry): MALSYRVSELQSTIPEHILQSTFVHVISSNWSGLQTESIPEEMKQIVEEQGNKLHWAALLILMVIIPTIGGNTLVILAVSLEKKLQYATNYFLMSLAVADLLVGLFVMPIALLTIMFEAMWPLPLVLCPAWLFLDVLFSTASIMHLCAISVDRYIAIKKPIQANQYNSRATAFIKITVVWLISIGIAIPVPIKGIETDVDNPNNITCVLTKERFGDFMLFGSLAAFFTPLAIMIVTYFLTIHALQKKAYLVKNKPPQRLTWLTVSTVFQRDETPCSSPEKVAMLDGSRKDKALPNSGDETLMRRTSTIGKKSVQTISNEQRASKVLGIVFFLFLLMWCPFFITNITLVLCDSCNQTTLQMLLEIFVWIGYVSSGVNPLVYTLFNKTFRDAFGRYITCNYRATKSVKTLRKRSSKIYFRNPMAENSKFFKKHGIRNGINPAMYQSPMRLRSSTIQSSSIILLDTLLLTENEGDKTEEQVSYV
T8 sequence (P47898 whole entry): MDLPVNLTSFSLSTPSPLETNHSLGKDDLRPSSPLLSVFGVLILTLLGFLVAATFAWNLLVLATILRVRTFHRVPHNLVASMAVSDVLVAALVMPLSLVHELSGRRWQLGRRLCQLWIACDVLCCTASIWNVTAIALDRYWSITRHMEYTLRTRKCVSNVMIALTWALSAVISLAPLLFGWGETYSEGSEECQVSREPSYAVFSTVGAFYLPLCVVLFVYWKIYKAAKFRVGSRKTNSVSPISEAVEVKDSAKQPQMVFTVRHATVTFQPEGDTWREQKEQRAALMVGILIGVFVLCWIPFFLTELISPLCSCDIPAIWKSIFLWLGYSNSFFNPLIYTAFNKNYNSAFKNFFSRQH

Take `CC(C)n1nc(C(=O)NCC2CCN(CCc3ccc(C(=O)O)cc3)CC2)c2ccccc21` [Compound 1, 4-{2-[4-({[(1-Isopropyl-1H-indazol-3-yl)carbonyl]amino}methyl)piperidin-1-yl]ethyl}benzoic acid]: the melting point lay in the range of 179 to 181 °C. The compound also gave an IC50 in data set [1] of more than 10 µM. The IC50 in [2] was more than 10 µM. The compound further displayed a half-maximal inhibitory concentration (IC50) in data set [3] of more than 10 µM. Moreover, the IC50 in data set [4] is more than 10 µM. The concentration for half-maximal inhibition (IC50) in data set [5] was more than 10 µM. The compound further showed an IC50 in data set [6] of more than 10 µM. The compound also showed an IC50 in [7] of more than 10 µM. The IC50 in data set [8] stood at 0.0008 µM. Moreover, the “inhibition of binding to the 5-HT4 receptor (selectivity, in words)” value in [8] (versus the other serotoninergic receptors) is listed as “selective inhibition of binding to the 5-HT4 receptor”. Further, the IC50 in data set [9] was more than 10 µM. The same compound yielded an IC50 in [10] of more than 10 µM. This compound returned an IC50 in data set [11] of more than 10 µM. Also, in data set [12], the IC50 was more than 50 µM. In data set [12] (human), this compound yielded an inhibition at 0.01 µM of 0%, an inhibition at 0.1 µM of 0%, an inhibition at 1 µM of 0.9% and an inhibition at 10 µM of 6.5%. In data set [12] (human), this compound gave an inhibition at 50 µM of 18.8%.

The record behind these values is patent US8455519B2, “Drug active in neuropathic pain” (Aziende Chimiche Riunite Angelini Francesco A.C.R.A.F. …, priority 2007, dated 2013).
